Assay results published in patent US20100144779A1, “Marine Alkalod Makaluvamines and Derivatives Thereof” (THE UAB RESEARCH FOUNDATION, priority 2007, published 2010).
Where two headings read alike, the source gives them in different places.

Legend:
Assay type in all cases: cell-based, human
BEAS-2B = test: MTT growth inhibition assay; details: normal cells, 72 hr, read-out: Growth inhibitory activity (IC50)
Experimental: (§1) Several of the disclosed compounds were also tested for their ability to inhibit the growth of other cancer cell lines as shown in Tables 4 and 5. The cell lines were obtained from the American Type Culture Collection (Rockville, Md.) and were grown as follows: MCF-7 (p53 wt) breast cancer cells were grown in DMEM media containing 1 mM non-essential amino acids, Earle's BSS, 1 mM Na pyruvate, and 10 mg/L bovine insulin. MDA-MB-468 (p53 mt) cells were grown in DMEM/F-12 Ham's media (1:1 mixture); H838 (p53 wt) cells were grown in RPMI 1640. H358 (p53 null), H1299 (p53 null) cells were grown in RPMI 1640 supplemented with 1.5 g/L Na2CO3; 4.5 g/L glucose, 10 mM HEPES buffer, 1 mM Na pyruvate and 2 mM L-glutamine. A549 (p53 wt) cells were grown in Ham's F12K medium supplemented with 2 mM L-glutamine and 1.5 g/L Na2CO3; LNCaP (p53 wt) cells were grown in RPMI 1640 supplemented with 1.5 g/L Na2CO3, 4.5 g/L glucose, 10 mM HEPES buffer, 1 mM Na pyruvate and 2 mM L-glutamine. PC3 (p53 null) cells were cultured in Ham's F-12K medium containing 2 mM L-glutamine. TRAMP Cl cells were cultured in DEME medium with 4 mM L-glutamine adjusted to contain 1.5 g/L sodium bicarbonate and 4.5 g/L glucose supplemented with 0.005 mg/ml bovine insulin and 10 nM dehydroisoandrosterone, 5% fetal bovine serum and 5% Nu-Serum IV; HPAC (p53 wt) pancreatic cancer cells were grown in a 1:1 mixture of DMEM and Ham's F12 medium containing 1.2 g/L Na2CO3, 2.5 mM L-glutamine, 15 mM HEPES and 0.5 mM Na pyruvate supplemented with 0.002 mg/mL insulin, 5 μg/mL transferrin, 40 ng/mL hydrocortisone, 10 ng/mL epidermal growth factor and 5% fetal bovine serum. PANC-1 (p53 mt) cells were cultured with RPMI 1640 containing 1 mM HEPES buffer, 25 μg/mL gentamicin, 1.5 g/L Na2CO3 and 0.25 μg/mL amphotericin B. BxPC-3 (p53 mt) cells were grown in RPMI 1640 medium, MiaPaCa-2 (p53 mt) and S2013 (p53 mt) cells were grown in DMEM, cell line CFPAC1 (p53 mt) was grown in Iscove's MEM supplemented with 4 mM L-glutamine; T98G (p53 mt) glioma cells were cultured with DMEM supplemented with 1% Na pyruvate, and 1% non-essential amino acids; HCT116 human colon cancer cell lines were kindly provided by Dr. Bert Vogelstein (Johns Hopkins Oncology Center, Baltimore, Md.). The HCT116 cell line was maintained in McCoy's-5A media; Human bronchial epithelial cell line BEAS 2B was cultured in DMEM medium; Human mammary epithelial cell line MCF10A was cultured in a 1:1 mixture of DMEM and Ham's F12 medium containing 5% horse serum, 15 mM hepes buffer, 10 ug/ml insulin, 20 ng/ml EGF, 100 ng/ml choleratoxin and 0.5 ug/ml hydrocortisone; the human primary fibroblast cell lines IMR90-EEA and IMR90-E1A (transformed using the adenoviral oncogene E1A) were gifts from Dr. S. Lee (Harvard University, Boston, Mass.). IMR90 and IMR90-E1A cells were cultured in DMEM medium.
(§2) All media contained 10% FBS and 1% penicillin/streptomycin unless otherwise specified. The effects of disclosed compounds on human cancer cell growth, expressed as the percentage of cell survival, were determined by the MTT [3-(4,5-Dimethyl-2-thiazolyl)-2,5-diphenyl-2H-tetrazolium bromide] assay. Cells were grown in 96-well plates and exposed to the test compounds (0, 0.01, 0.1, 1, 10, 100 μM) for 72 hr followed by addition of 10 μL MTT solution (5 mg/mL; Sigma; St. Louis, Mo.) to each well. The plates were incubated for 2-4 hr at 37° C. The supernatant was then removed and formazan crystals were dissolved with 100 μL of DMSO. The absorbance at 570 nm was recorded with an OPTImax microplate reader (Molecular Devices; Sunnyvale, Calif.). The cell survival percentages were calculated by dividing the mean OD of compound containing wells by that of DMSO-control wells. Three separate experiments were accomplished to determine the IC50.

BXPC3 = test: MTT growth inhibition assay; details: 72 hr, read-out: Growth inhibitory activity (IC50)
Experimental: as §1, §2

CFPAC1 = test: MTT growth inhibition assay; details: 72 hr, read-out: Growth inhibitory activity (IC50)
Experimental: as §1, §2

H1299 [1] = test: MTT growth inhibition assay; details: 72 hr, read-out: Growth inhibitory activity (IC50)
Experimental: as §1, §2

H838 = test: MTT growth inhibition assay; details: 72 hr, read-out: Growth inhibitory activity (IC50)
Experimental: as §1, §2

IMR90-EEA = test: MTT growth inhibition assay; details: normal cells, 72 hr, read-out: Growth inhibitory activity (IC50)
Experimental: as §1, §2

LNCaP = test: MTT growth inhibition assay; details: cancer cell, 72 hr, read-out: Growth inhibitory activity (IC50)
Experimental: as §1, §2

A549 = test: Cell cycle progression (propidium iodide, flow cytometry); details: 48 hr; for G1 / G2/M / S: A549; for cell cycle arrest: lung cancer A549, dose-dependent
Experimental: (§3) To determination of the effects of the disclosed compounds on the cell cycle, 2-3×10^5 cells were exposed to the test compounds (0-5 μM) and incubated for 48 hr prior to analysis (Table 6). Cells were trypsinized, washed with PBS and fixed in 1.5 mL 95% ethanol at 4° C. overnight, followed by incubation with RNAse and staining with propidium iodide (Sigma). The DNA content was determined by flow cytometry.

H1299 [2] = test: as above; details: 48 hr; for G1 / G2/M / S: H1299; for cell cycle arrest: lung cancer H1299, dose-dependent
Experimental: as §3

[3] = Homo sapiens, BXPC-3, BXPC3, cancer cell
[4] = Homo sapiens, CFPAC-1, CFPAC1, cancer cell
[5] = Homo sapiens, NCI-H1299, H1299, cancer cell
[6] = Homo sapiens, NCI-H838, H838, cancer cell

SMILES	IC50 (BEAS-2B; Homo sapiens) [nM]	IC50 (BXPC3; [3]) [nM]	IC50 (CFPAC1; [4]) [µM]	IC50 (H1299 [1]; [5]) [µM]	IC50 (H838; [6]) [nM]	IC50 (IMR90-EEA; Homo sapiens) [nM]	IC50 (LNCaP; Homo sapiens) [nM]	G1 (A549; 0.1 μM)	G2/M (A549; 0.1 μM)	S (A549; 0.1 μM)	G1 (A549; 1 μM)	G2/M (A549; 1 μM)	S (A549; 1 μM)	G1 (A549; 5 μM)	G2/M (A549; 5 μM)	S (A549; 5 μM)	cell cycle arrest (A549)	G1 (H1299 [2]; 0.1 μM)	G2/M (H1299 [2]; 0.1 μM)	S (H1299 [2]; 0.1 μM)	other results
COc1ccc(CCNC2=CC3=NCCc4c[nH]c(c43)C2=O)cc1OC.O=C(O)C(F)(F)F [Compound 20]	1690	5010	4.27	5.99	838	2880	24500														
O=C(O)C(F)(F)F.O=C1C(NCCc2ccc3c(c2)OCO3)=CC2=NCCc3c[nH]c1c32 [Compound 6]	2240	3210	9.1	5.95	665	5700	3960	58.66	20.85	20.50	58.59	20.37	21.04	50.88	23.36	25.76	cell cycle arrest in the G2/M phase	53.99	30.73	15.28	G1 (H1299 [2]; 1 μM): 57.20; G2/M (H1299 [2]; 1 μM): 27.57; S (H1299 [2]; 1 μM): 15.22; G1 (H1299 [2]; 5 μM): 35.29; G2/M (H1299 [2]; 5 μM): 41.28; S (H1299 [2]; 5 μM): 23.43; cell cycle arrest (H1299 [2]): cell cycle arrest in the G2/M phase
O=C(O)C(F)(F)F.O=C1C(NCc2ccc(F)cc2)=CC2=NCCc3c[nH]c1c32 [Compound 28]	587	2300	5.4	0.968	110	1490	1290	59.91	20.22	19.87	57.88	20.14	21.98	46.78	25.07	28.14	cell cycle arrest in the S phase	54.23	25.17	20.60	G1 (H1299 [2]; 1 μM): 46.88; G2/M (H1299 [2]; 1 μM): 31.82; S (H1299 [2]; 1 μM): 21.31; G1 (H1299 [2]; 2 μM): 31.52; G2/M (H1299 [2]; 2 μM): 36.36; S (H1299 [2]; 2 μM): 32.11; cell cycle arrest (H1299 [2]): cell cycle arrest in the S phase
O=C1C(NCCc2ccccc2)=CC2=NCCc3c[nH]c1c32 [Compound 4d]																					IC50 (BEAS-2B): 695 nM; IC50 (BXPC3; BXPC3, cancer cell): 2940 nM; IC50 (CFPAC1; CFPAC1, cancer cell): 5.11 µM; IC50 (H1299 [1]; H1299, cancer cell): 4.27 µM; IC50 (H838; H838, cancer cell): 260 nM; IC50 (IMR90-EEA): 3770 nM; IC50 (LNCaP): 161 nM
O=C1C(NCc2ccccc2)=CC2=NCCc3c[nH]c1c32 [Compound 4c]								60.23	19.41	20.37	58.62	19.85	21.53	47.18	30.35	22.48	cell cycle arrest in the G2/M phase	55.27	26.89	17.84	IC50 (BEAS-2B): 1440 nM; IC50 (BXPC3; BXPC3, cancer cell): 2870 nM; IC50 (CFPAC1; CFPAC1, cancer cell): 8.77 µM; IC50 (H1299 [1]; H1299, cancer cell): 1.42 µM; IC50 (H838; H838, cancer cell): 160 nM; IC50 (IMR90-EEA): 2770 nM; IC50 (LNCaP): 2750 nM; G1 (H1299 [2]; 1 μM): 51.18; G2/M (H1299 [2]; 1 μM): 29.35; S (H1299 [2]; 1 μM): 19.47; G1 (H1299 [2]; 2 μM): 30.46; G2/M (H1299 [2]; 2 μM): 49.58; S (H1299 [2]; 2 μM): 19.96; cell cycle arrest (H1299 [2]): cell cycle arrest in the G2/M phase
